Positions of bridges follow the written chain, without caps; N, C: chain ends. Non-standard residues stand in square brackets, D forms with d. Residues, ends and D or L forms follow the SMILES beside them. Hyp = O=C(O)[C@@H]1C[C@@H](O)CN1
Target: N-type calcium channel currents (Cav2.2) in rDRG neurons (Rattus norvegicus, UniProt Q02294)
Experiment: cell-based
Conditions: SEM

Chain of N-type calcium channel currents (Cav2.2) in rDRG neurons (Q02294 whole entry, looked up): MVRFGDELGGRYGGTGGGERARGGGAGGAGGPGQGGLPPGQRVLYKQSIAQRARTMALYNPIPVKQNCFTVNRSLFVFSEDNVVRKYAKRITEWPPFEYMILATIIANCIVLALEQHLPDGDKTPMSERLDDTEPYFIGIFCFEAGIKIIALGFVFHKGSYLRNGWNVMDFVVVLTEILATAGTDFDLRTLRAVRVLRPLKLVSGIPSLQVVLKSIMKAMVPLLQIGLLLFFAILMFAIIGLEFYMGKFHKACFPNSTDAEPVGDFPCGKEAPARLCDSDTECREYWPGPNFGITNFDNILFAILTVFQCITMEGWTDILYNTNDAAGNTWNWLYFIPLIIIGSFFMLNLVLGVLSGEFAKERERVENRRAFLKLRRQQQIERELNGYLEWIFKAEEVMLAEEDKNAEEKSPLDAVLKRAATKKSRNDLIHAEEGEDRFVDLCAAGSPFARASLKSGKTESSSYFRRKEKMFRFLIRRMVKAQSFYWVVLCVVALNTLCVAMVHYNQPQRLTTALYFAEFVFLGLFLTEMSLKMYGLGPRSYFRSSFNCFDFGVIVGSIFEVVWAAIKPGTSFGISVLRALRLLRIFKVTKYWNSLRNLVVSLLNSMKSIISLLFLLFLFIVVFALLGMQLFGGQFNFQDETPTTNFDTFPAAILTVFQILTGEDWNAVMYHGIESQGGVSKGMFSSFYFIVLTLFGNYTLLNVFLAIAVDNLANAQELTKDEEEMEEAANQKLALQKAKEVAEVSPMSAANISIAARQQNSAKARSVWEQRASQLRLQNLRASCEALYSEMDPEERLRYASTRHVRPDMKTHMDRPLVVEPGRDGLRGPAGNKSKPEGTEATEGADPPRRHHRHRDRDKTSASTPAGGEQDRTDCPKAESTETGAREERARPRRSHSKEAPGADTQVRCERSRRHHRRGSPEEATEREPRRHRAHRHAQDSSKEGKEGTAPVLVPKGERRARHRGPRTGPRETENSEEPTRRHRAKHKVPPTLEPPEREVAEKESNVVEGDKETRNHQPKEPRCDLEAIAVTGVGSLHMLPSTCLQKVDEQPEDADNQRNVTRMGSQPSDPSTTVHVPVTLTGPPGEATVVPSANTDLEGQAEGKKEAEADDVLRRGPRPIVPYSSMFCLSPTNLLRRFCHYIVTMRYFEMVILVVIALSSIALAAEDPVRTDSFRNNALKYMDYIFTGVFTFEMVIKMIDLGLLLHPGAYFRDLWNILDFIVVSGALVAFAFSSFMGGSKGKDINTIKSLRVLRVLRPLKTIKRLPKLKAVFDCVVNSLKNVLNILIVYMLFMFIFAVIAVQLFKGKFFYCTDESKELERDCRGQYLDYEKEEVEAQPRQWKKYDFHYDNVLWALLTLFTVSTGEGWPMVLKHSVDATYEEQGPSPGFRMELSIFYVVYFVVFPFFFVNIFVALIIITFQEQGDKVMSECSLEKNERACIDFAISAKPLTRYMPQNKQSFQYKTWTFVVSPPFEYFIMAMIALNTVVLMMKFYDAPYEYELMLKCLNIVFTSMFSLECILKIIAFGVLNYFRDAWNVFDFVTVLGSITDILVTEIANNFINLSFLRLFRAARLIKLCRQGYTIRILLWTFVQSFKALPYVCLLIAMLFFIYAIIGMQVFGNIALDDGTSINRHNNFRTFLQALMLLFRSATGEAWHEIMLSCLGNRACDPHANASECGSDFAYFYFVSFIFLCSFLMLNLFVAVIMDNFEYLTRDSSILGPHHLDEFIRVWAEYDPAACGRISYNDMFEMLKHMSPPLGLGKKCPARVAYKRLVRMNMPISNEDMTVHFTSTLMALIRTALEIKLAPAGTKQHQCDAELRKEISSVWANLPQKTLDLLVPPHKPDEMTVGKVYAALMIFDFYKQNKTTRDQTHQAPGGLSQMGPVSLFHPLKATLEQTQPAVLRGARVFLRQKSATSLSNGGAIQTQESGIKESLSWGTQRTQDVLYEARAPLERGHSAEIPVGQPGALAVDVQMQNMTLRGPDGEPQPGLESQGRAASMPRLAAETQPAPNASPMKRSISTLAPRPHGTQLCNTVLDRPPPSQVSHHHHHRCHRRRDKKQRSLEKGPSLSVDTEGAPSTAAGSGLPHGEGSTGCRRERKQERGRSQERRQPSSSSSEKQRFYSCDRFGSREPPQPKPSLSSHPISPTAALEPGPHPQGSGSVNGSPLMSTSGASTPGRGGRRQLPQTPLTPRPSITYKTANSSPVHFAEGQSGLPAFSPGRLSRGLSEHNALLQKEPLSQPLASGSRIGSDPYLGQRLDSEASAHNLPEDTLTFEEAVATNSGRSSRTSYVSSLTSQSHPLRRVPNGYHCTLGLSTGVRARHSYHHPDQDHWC

`CC[C@H](C)[C@@H]1NC(=O)[C@@H]2CSSC[C@@H]3NC(=O)[C@H](CCCCN)NC(=O)[C@H](CO)NC(=O)CNC(=O)[C@@H]4C[C@@H](O)CN4C(=O)[C@@H]4CCCN4C(=O)[C@H](CCCCN)NC(=O)[C@@H](N)CSSC[C@H](NC(=O)[C@H](CSSC[C@@H](C(=O)N[C@@H](CCCNC(=N)N)C(=O)N[C@@H](CCCCN)C(=O)N[C@@H](Cc4ccc(O)cc4)C(=O)N[C@@H](Cc4ccc(O)cc4)C(=O)O)NC(=O)[C@H](CCCNC(=N)N)NC(=O)[C@H](CCCCN)NC(=O)[C@H]([C@@H](C)O)NC(=O)[C@H](Cc4ccc(O)cc4)NC(=O)[C@H](CO)NC1=O)NC(=O)[C@H](CC(=O)O)NC(=O)[C@H](Cc1ccc(O)cc1)NC(=O)[C@H](CCSC)NC(=O)[C@H](CO)NC(=O)[C@@H]1C[C@@H](O)CN1C(=O)[C@H](CO)NC3=O)C(=O)N[C@@H]([C@@H](C)O)C(=O)N[C@@H]([C@@H](C)O)C(=O)N2` [MoVIB-[R13Y]] (H-CKP[Hyp]GSKCS[Hyp]SMYDCCTTCISYTKRCRKYY-OH; disulfide 1-16, 8-19, 15-26) was tested, and the IC50 was 900 ± 130 nM.
